Measured values: PubChem BioAssay (NCI)
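All cell lines were grown in 96-well plates and treated with compound for 48 hours. Abbreviation: GI50, concentration required for 50% inhibition of growth. TGI: concentration producing complete growth inhibition.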

Tests used:
Test in all cases: NCI anticancer screen, dose series, 48 h
MOLT-4 leukemia = system: MOLT-4 leukemia
M14 melanoma = system: M14 melanoma
OVCAR-3 ovarian = system: OVCAR-3 ovarian
IGROV1 ovarian = system: IGROV1 ovarian
EKVX NSCLC = system: EKVX NSCLC
RXF 393 renal = system: RXF 393 renal
HOP-92 NSCLC = system: HOP-92 NSCLC
CAKI-1 renal = system: CAKI-1 renal
K-562 leukemia = system: K-562 leukemia
BT-549 breast = system: BT-549 breast

Row | SMILES | GI50 (MOLT-4 leukemia) | TGI (MOLT-4 leukemia) | GI50 (M14 melanoma) | TGI (M14 melanoma) | GI50 (OVCAR-3 ovarian) | TGI (OVCAR-3 ovarian) | GI50 (IGROV1 ovarian) | TGI (IGROV1 ovarian) | GI50 (EKVX NSCLC) | TGI (EKVX NSCLC) | GI50 (RXF 393 renal) | TGI (RXF 393 renal) | GI50 (HOP-92 NSCLC) | TGI (HOP-92 NSCLC) | GI50 (CAKI-1 renal) | TGI (CAKI-1 renal) | GI50 (K-562 leukemia) | TGI (K-562 leukemia) | GI50 (BT-549 breast) | TGI (BT-549 breast)
1 | C/C(=N/N=C(N)N)c1ccc(NC(=O)Nc2ccc(/C(C)=N/N=C(N)N)cc2)cc1 | 25.7 µM | > 100 µM | 35.7 µM | > 75.1 µM | 18.6 µM | > 61.6 µM | 7.47 µM | 23.9 µM | 19.2 µM | 49 µM | 20.3 µM | 42.4 µM | 14.2 µM | 33.8 µM | 22.4 µM | > 100 µM | 5.84 µM | > 59.9 µM | 14.8 µM | 38.7 µM
2 | CCn1ccc(NS(=O)(=O)c2ccc(N)cc2)nc1=O | > 100 µM | > 100 µM | > 100 µM | > 100 µM | > 100 µM | > 100 µM | > 100 µM | > 100 µM | > 100 µM | > 100 µM | > 100 µM | > 100 µM | > 100 µM | > 100 µM | > 100 µM | > 100 µM | > 100 µM | > 100 µM | > 100 µM | > 100 µM
3 | CC1(C)N=C(N)N=C(N)N1c1cccc(Br)c1 | 0.94 µM | > 100 µM | 0.558 µM | > 100 µM | 6.56 µM | > 100 µM | 0.202 µM |  | 17.4 µM | > 100 µM | > 23.1 µM | > 100 µM | > 100 µM | > 100 µM | 41.9 µM | > 100 µM | 0.0597 µM | > 100 µM | 8.04 µM | > 100 µM
4 | COc1ccc2c(c1)C(=O)c1c-2c(Nc2cccc(C(C)=O)c2)nc2ccccc12 | 64.6 µM | > 100 µM | 15.5 µM | 46.5 µM | 19.7 µM | 42.8 µM | 3.67 µM | 18.4 µM | 12.5 µM | 32.1 µM | 9.79 µM | 31.5 µM | 11.1 µM | 27.7 µM | 20.3 µM | 43.6 µM | 44.7 µM | > 100 µM | 9.68 µM | 21.4 µM
5 | COCc1c(-c2ccc(NC(=O)Nc3cc(C(F)(F)F)ccc3F)c(F)c2)c2c(N)ncnn2c1CN1CCOCC1 | 2.07 µM | 9.8 µM | 1.5 µM | > 10 µM | 3.37 µM | > 10 µM | 0.438 µM | 7.06 µM | 1.71 µM | 7.62 µM | 0.236 µM | 1.43 µM | 0.382 µM | 5.97 µM | 1.9 µM | > 10 µM | 1.18 µM | > 10 µM | 0.776 µM | 6.13 µM
6 | C[C@@H](Oc1cc(-n2cnc3ccc(OC[C@@H](O)CO)cc32)sc1C(N)=O)c1ccccc1Cl | 0.095 µM | 7.47 µM | 0.0993 µM | > 25 µM | 0.0491 µM | 0.176 µM | 0.214 µM | > 25 µM | 1.75 µM | > 25 µM | 0.0653 µM | 2.08 µM | 0.765 µM | > 16.4 µM | 12.2 µM | > 25 µM | 0.0804 µM | > 25 µM | 0.194 µM | 11.1 µM
7 | Cc1ccc(S(=O)(=O)Nc2ccc(-c3cc(-c4cccc(F)c4)c(C#N)c(N)n3)cc2)cc1 | 3.2 µM | 30.2 µM | 2.01 µM | 4.38 µM | 1.63 µM | 3.12 µM | 1.35 µM | 2.75 µM | 2.17 µM | 6.32 µM | 1.44 µM | 2.79 µM | 1.06 µM | 2.37 µM | 1.6 µM | 3.16 µM | 2.63 µM | > 100 µM | 1.35 µM | 2.78 µM
8 | Cc1cc(=O)oc2cc(OC/C=C3\CCC(=O)O3)ccc12 |  | 0.011 µM | 9.51 µM | 25 µM | 12.2 µM | 28.8 µM | 13.2 µM | 28.7 µM | 21 µM | 54.4 µM | 13.1 µM | 31.9 µM | 12.1 µM | 28.4 µM | 7.59 µM | 26.8 µM |  | 7.84 µM | 15.8 µM | 40 µM
9 | Nc1ncnc2c1ccn2[C@@H]1O[C@H]([C@H](O)c2ccc(Cl)c(F)c2)[C@@H](O)[C@H]1O | > 100 µM | > 100 µM | > 100 µM | > 100 µM | > 100 µM | > 100 µM | 48.6 µM | > 100 µM | > 100 µM | > 100 µM | 66.5 µM | > 100 µM | > 100 µM | > 100 µM | > 100 µM | > 100 µM | > 100 µM | > 100 µM | > 100 µM | > 100 µM
10 | FC(F)(F)c1cc(Nc2ccc3cc(OCCCN4CCOCC4)ccc3n2)ccc1Cl | 2.16 µM | 6.82 µM | 1.71 µM | 3.66 µM | 1.93 µM | 4.47 µM | 2.62 µM | 7.49 µM | 2.3 µM | 6.21 µM | 1.39 µM | 3.22 µM | 1.15 µM | 2.97 µM | 1.66 µM | 3.44 µM | 1.04 µM | 3.83 µM | 1.74 µM | 4.07 µM
11 | O=C(/C=C/OC(=O)c1cccc(Cl)c1)c1ccc(Cl)cc1 | 31.8 µM | > 78.6 µM | 34.6 µM | > 100 µM | 21.7 µM | > 74 µM | > 46.8 µM | > 100 µM | > 100 µM | > 100 µM | > 100 µM | > 100 µM | 33.5 µM | > 100 µM | > 51.5 µM | > 100 µM | 34.5 µM | > 100 µM | 30.3 µM | > 77 µM
12 | C[CH2][Sn]([CH2]C)([O]C(=O)c1ccc(OC)c(OC)c1OC)[O]C(=O)c1ccc(OC)c(OC)c1OC | 34.1 µM | > 100 µM | 61.9 µM | > 100 µM | > 100 µM | > 100 µM | > 100 µM | > 100 µM | > 100 µM | > 100 µM | 14.4 µM | 30.6 µM | 21.8 µM | 49.6 µM | 14.7 µM | 30.6 µM | 21.7 µM | > 74.6 µM | 17.2 µM | 31.1 µM
